The source of these data is patent publication US10059695B2, “Cot modulators and methods of use thereof” (Gilead Sciences, Inc., priority 2016, dated 2018).

Where only a bound is given, the exact number is not on record here.

For orientation: EC50 means the midpoint of the concentration-response curve. The IC50 is the concentration at which inhibition is half-maximal.

One experiment deals with TNFα. Briefly: Cot Monocyte TNFα Cell Based Assay. The following applies: LPS-stimulated cryopreserved human monocytes, TNFα by TR-FRET. How it is done:
Example 23: Cot Monocyte TNFα Cell Based Assay
Cryopreserved human monocytes (Stem Cell Technologies) were thawed, diluted in RPMI with Glutamax (10 mM HEPES, 1× Pen-Strep, 55 μM β-mercaptoethanol, 1 mM Sodium pyruvate) media containing 10% FBS to 0.125×10^6 cells/ml and recovered at 37° C. for 2 hours. The cell suspension was then plated at a density of 5,000 cells/well onto black 384 well Greiner clear bottom plates. Plates were pre-spotted with test compounds and serially diluted in DMSO where 200 nL/well were delivered using the Echo 550 acoustic liquid dispenser (Labcyte®) for a final DMSO concentration of 0.5%. Plated cells were treated with compound for 1 hour at 37° C. Cells were then stimulated with 50 μg/ml of LPS (Sigma) excluding outside columns of plate used for unstimulated cell control wells. Cells were incubated for an additional 4 hours at 37° C. Cells were then spun out of the media and 5 μl of sample were taken and analyzed for total TNFα content using the TR-FRET Human TNFα detection system (CisBio). This system utilizes two labeled antibodies (cryptate and XL665) that bind to two different epitopes of the TNFα molecule and produce FRET signal proportional to the concentration of TNFα in the sample. Detection antibodies are mixed 50:50 and 5 μL were dispensed into each well. Plates were covered with clear seals and incubated at room temp overnight. The following morning plates were read using an Envision 2103 Multilabeled reader (PerkinElmer) with excitation/emission/FRET emission at 340 nm/615 nm/665 nm, respectively. Fluorescence intensities at 615 nm and 665 nm emission wavelengths were expressed as a ratio (665 nm/615 nm). Percent of control was calculated as follows: % Control=100×(RatioSample−Ratio0% stimulation)/(Ratio100% Stimulation−Ratio0% Stimulation) where unstimulated cells (0% stimulation) were the negative control and stimulated cells (100% stimulation) were used as the positive control.
On the technique in general: Time-resolved FRET reads energy transfer from a long-lived donor to a nearby acceptor.

A further experiment addresses Human Cot (Homo sapiens (Human), UniProt P41279). Briefly: High Throughput Cot Biochemical Assay (KinEASE TR-FRET). The settings on record: recombinant human Cot catalytic domain, 400 μM ATP. How it is done:
Example 24: High Throughput Cot Biochemical Assay
Human Cot enzyme activity was measured using KinEASE (Cisbio), a time-resolved fluorescence resonance energy transfer (TR-FRET) immunoassay. In this assay, Cot-catalyzes the phosporylation of a XL665-labeled peptide substrate. Europium conjugated […] specific antibody binds the resulting phosphorylated peptide. Formation of phosphorylated peptide is quantified by TR-FRET with Europium as the donor and XL665 the acceptor in a 2-step endpoint assay. Purified recombinant human Cot catalytic domain (30-397 amino acids) was purchased from Carna Biosciences. In brief, test compounds serially diluted in DMSO were delivered into Proxy white, low volume, 384 well plates using the Echo 550 acoustic liquid dispenser (Labcyte®). Cot enzyme and substrates were dispensed into assay plates using a Multi-Flo (Bio-Tek Instruments). The standard 5 μL reaction mixture contained 400 μM ATP, 1 μM STK3 peptide, 5 nM of Cot in reaction buffer (10 mM MOPS, pH 7.0, 0.02% NaN3, 0.5 mg/mL BSA, 10 mM MgOAc, 1 mM DTT, 0.025% NP-40, 1.5% glycerol) and 0.1% DMSO. After 2.5 hrs of incubation at room temperature, 5 μL of Stop and Detect Solution (1:200 Europium Cryptate labeled anti-phosphorylated peptide antibody solution and 125 nM strepavidin-XL665 Tracer in a 50 mM Hepes pH 7.0 detection buffer containing sufficient EDTA) was added. The plate was then further incubated for 120 minutes at room temperature and read using an Envision 2103 Multilabeled reader (PerkinElmer) with excitation/emission/FRET emission at 340 nm/615 nm/665 nm, respectively. Fluorescence intensities at 615 nm and 665 nm emission wavelengths were expressed as a ratio (665 nm/615 nm).

Chain of Human Cot (P41279 30-397): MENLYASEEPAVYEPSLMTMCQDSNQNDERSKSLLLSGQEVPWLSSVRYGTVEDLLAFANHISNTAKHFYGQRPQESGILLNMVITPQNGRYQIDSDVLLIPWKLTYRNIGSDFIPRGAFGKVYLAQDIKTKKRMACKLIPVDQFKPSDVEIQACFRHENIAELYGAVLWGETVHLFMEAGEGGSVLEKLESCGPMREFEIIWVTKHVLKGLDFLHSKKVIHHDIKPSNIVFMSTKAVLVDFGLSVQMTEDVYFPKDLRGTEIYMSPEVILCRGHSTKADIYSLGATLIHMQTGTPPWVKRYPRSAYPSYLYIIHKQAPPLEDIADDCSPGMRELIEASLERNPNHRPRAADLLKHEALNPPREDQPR

For the molecule `[2H][C@](Nc1ccc2ncnc(NCC(C)(C)C)c2c1)(c1ccc(F)cc1)c1cn(C2CC2)nn1` [I-1, (S)-N^6-((1-cyclopropyl-1H-1,2,3-triazol-4-yl)(4-fluorophenyl)methyl-d)-N^4-neopentylquinazoline-4,6-diamine], the response in the experiment with TNFα was half-maximal at 0.101 µM (EC50). In addition, the IC50 on Human Cot turned out to be 0.005 µM. In the experiment on TNFα, `CC(C)(C)CNc1ncnc2ccc(N[C@@H](c3ccc(F)cc3)c3cn(C4CC4)nn3)cc12` [I-2, (S)-N^6-((1-cyclopropyl-1H-1,2,3-triazol-4-yl)(4-fluorophenyl)methyl)-N^4-neopentylquinazoline-4,6-diamine] registered an EC50 of 0.085 µM. Further, the IC50 on Human Cot was found to be 0.0077 µM. For `[2H][C@](Nc1ccc2ncnc(NCC3(C)CCOCC3)c2c1)(c1ccc(F)cc1)c1cn(C2CC2)nn1` [I-3, (S)-N^6-((1-cyclopropyl-1H-1,2,3-triazol-4-yl)(4-fluorophenyl)methyl-d)-N^4-((4-methyltetrahydro-2H-pyran-4-yl)methyl)quinazoline-4,6-diamine], the EC50 in the experiment on TNFα was 0.296 µM. The half-inhibitory concentration (IC50) on Human Cot stood at 0.011 µM.

`[2H][C@](Nc1ccc2ncnc(N[C@H](CC)c3ccccc3)c2c1)(c1ccc(F)cc1)c1cn(C2CC2)nn1` [I-4, N^6-((S)-(1-cyclopropyl-1H-1,2,3-triazol-4-yl)(4-fluorophenyl)methyl-d)-N^4-((R)-1-phenylpropyl) quinazoline-4,6-diamine] returned a concentration for a half-maximal effect (EC50) in the experiment on TNFα of 0.796 µM. Besides, the IC50 at Human Cot came to 0.043 µM.

`[2H]C(Nc1ccc2ncnc(NC(CC#N)c3ccccc3)c2c1)(c1ccc(F)cc1)c1cn(C2CC2)nn1` [I-5, 3-((6-(((S)-(1-cyclopropyl-1H-1,2,3-triazol-4-yl)(4-fluorophenyl)methyl-d)amino)quinazolin-4-yl)amino)-3-phenylpropanenitrile] gave an EC50 in the experiment on TNFα of 2.5 µM. For the same molecule, at Human Cot, the IC50 was found to be 0.053 µM.

`[2H][C@](c1ccc(F)cc1)(c1cn(C2CC2)nn1)N(CC)c1ccc2ncnc(NCC(C)(C)C)c2c1` [I-6, (S)-N6-((1-cyclopropyl-1H-1,2,3-triazol-4-yl)(4-fluorophenyl)methyl-d)-N6-ethyl-N4-neopentylquinazoline-4,6-diamine]: in the experiment on TNFα, the concentration for a half-maximal effect (EC50) is 4.23 µM. Further, the IC50 at Human Cot was 0.276 µM. In turn, `[2H][C@](Nc1ccc2ncnc(NCC(C)(C)C)c2c1)(c1cccc(C#N)c1)c1cn(C2CC2)nn1` [I-7, (S)-3-((1-cyclopropyl-1H-1,2,3-triazol-4-yl)((4-(neopentylamino)quinazolin-6-yl)amino)methyl-d)benzonitrile] gave an EC50 with TNFα of 0.102 µM. For the same molecule, the half-maximal inhibitory concentration (IC50) at Human Cot is 0.0026 µM. `CC(C)(C)CNc1ncnc2ccc(N[C@H](c3cn(C4CC4)nn3)c3ccccc3Cl)cc12` [I-8, (S)-N^6-((2-chlorophenyl)(1-cyclopropyl-1H-1,2,3-triazol-4-yl)methyl)-N^4-neopentylquinazoline-4,6-diamine] registered a 50% effective concentration (EC50) in the experiment on TNFα of 0.169 µM. Further, the half-maximal inhibitory concentration (IC50) on Human Cot worked out at 0.013 µM. In turn, `[2H][C@@](Nc1cc(Cl)c2ncnc(NCC(C)(C)C)c2c1)(c1cn(C2CC2)nn1)c1ccccc1Cl` [I-9, (S)-8-chloro-N6-((2-chlorophenyl)(1-cyclopropyl-1H-1,2,3-triazol-4-yl)methyl-d)-N4-neopentylquinazoline-4,6-diamine] gave a concentration giving a half-maximal response (EC50) in the experiment on TNFα of 0.086 µM. In addition, the IC50 on Human Cot came to 0.0048 µM. In the same order, the values of `[2H][C@@](Nc1cc(Cl)c2ncnc(NCC(C)(C)C)c2c1)(c1cn(CC(=O)O)nn1)c1ccccc1Cl` [I-10, (S)-2-(4-(((8-chloro-4-(neopentylamino)quinazolin-6-yl)amino)(2-chlorophenyl)methyl-d)-1H-1,2,3-triazol-1-yl)acetic acid] are > 1 µM and 0.013 µM. Molecule `[2H][C@](Nc1cc(Cl)c2ncnc(N[C@H](CCC#N)c3ccccc3)c2c1)(c1ccc(F)cc1)c1cn(C2CC2)nn1` [I-11, (R)-4-((8-chloro-6-(((S)-(1-cyclopropyl-1H-1,2,3-triazol-4-yl)(4-fluorophenyl)methyl-d)amino)quinazolin-4-yl)amino)-4-phenylbutanenitrile] showed a half-maximal effective concentration (EC50) in the experiment with TNFα of 0.671 µM. The IC50 on Human Cot is 0.046 µM. In the same order, the values of `[2H][C@](Nc1cc(Cl)c2ncnc(N[C@H](CCC#N)c3ccccc3)c2c1)(c1ccc(F)cc1)c1cn(C2(C(F)(F)F)CC2)nn1` [I-12, (R)-4-((8-chloro-6-(((S)-(4-fluorophenyl)(1-(1-(trifluoromethyl)cyclopropyl)-1H-1,2,3-triazol-4-yl)methyl-d)amino)quinazolin-4-yl)amino)-4-phenylbutanenitrile] are > 1 µM and 0.137 µM.

In turn, `[2H][C@](Nc1cc(C#N)c2ncnc(NCC(C)(C)C)c2c1)(c1ccc(F)cc1)c1cn(C2CC2)nn1` [I-14, (S)-6-(((1-cyclopropyl-1H-1,2,3-triazol-4-yl)(4-fluorophenyl)methyl-d)amino)-4-(neopentylamino) quinazoline-8-carbonitrile] displayed an EC50 with TNFα of 0.042 µM. Besides, the IC50 on Human Cot worked out at 0.0021 µM. As for `Cc1c(C#N)cccc1[C@H](Nc1cc(Cl)c2ncnc(NCC(C)(C)C)c2c1)c1cn(C2(C(F)F)CC2)nn1` [I-23, (S)-3-(((8-chloro-4-(neopentylamino)quinazolin-6-yl)amino)(1-(1-(difluoromethyl)cyclopropyl)-1H-1,2,3-triazol-4-yl)methyl)-2-methylbenzonitrile], the IC50 on Human Cot was 0.0016 µM. `O=C(OCc1ccccc1)N1CCC(n2cc(C(Nc3cc(Cl)c4ncnc(Nc5ccc(F)c(Cl)c5)c4c3)c3ccccc3)nn2)CC1` (stereo not drawn) [II-1, benzyl 4-(4-(((8-chloro-4-((3-chloro-4-fluorophenyl)amino)quinazolin-6-yl)amino)(phenyl)methyl)-1H-1,2,3-triazol-1-yl)piperidine-1-carboxylate]: on Human Cot, the concentration for half-maximal inhibition (IC50) was 8.48 µM. As to `Fc1ccc(Nc2ncnc3c(Cl)cc(NC(c4ccccc4)c4cn(C5CCNCC5)nn4)cc23)cc1Cl` (stereo not drawn) [II-2, 8-chloro-N^4-(3-chloro-4-fluorophenyl)-N^6-(phenyl(1-(piperidin-4-yl)-1H-1,2,3-triazol-4-yl)methyl) quinazoline-4,6-diamine], the half-maximal inhibitory concentration (IC50) on Human Cot came out at 0.028 µM. `CCN1CCC(n2cc(C(Nc3cc(Cl)c4ncnc(Nc5ccc(F)c(Cl)c5)c4c3)c3ccccc3)nn2)CC1` (stereo not drawn) [II-3, 8-chloro-N^4-(3-chloro-4-fluorophenyl)-N^6-((1-(1-ethylpiperidin-4-yl)-1H-1,2,3-triazol-4-yl)(phenyl)methyl) quinazoline-4,6-diamine]: on Human Cot, the IC50 came to 0.019 µM. Consider `CC(C)(C)N1CCC(n2cc([C@@H](Nc3ccc4ncnc(Nc5ccc(F)c(Cl)c5)c4c3)c3ccc(Cl)cc3)nn2)CC1` [II-5, (S)-N^6-((1-(1-(tert-butyl)piperidin-4-yl)-1H-1,2,3-triazol-4-yl)(4-chlorophenyl)methyl)-N^4-(3-chloro-4-fluorophenyl) quinazoline-4,6-diamine], for which, at Human Cot, the IC50 is 0.072 µM.

As for `Fc1ccc(Nc2ncnc3ccc(N[C@@H](c4ccc(Cl)cc4)c4cn(C5CCNCC5)nn4)cc23)cc1Cl` [II-6, (S)-N^4-(3-chloro-4-fluorophenyl)-N^6-((4-chlorophenyl)(1-(piperidin-4-yl)-1H-1,2,3-triazol-4-yl)methyl) quinazoline-4,6-diamine], on Human Cot, the IC50 came to 0.049 µM. For `Fc1ccc(Nc2ncnc3ccc(N[C@@H](c4ccc(Cl)cc4)c4cn(C5COC5)nn4)cc23)cc1Cl` [II-7, (S)-N^4-(3-chloro-4-fluorophenyl)-N^6-((4-chlorophenyl)(1-(oxetan-3-yl)-1H-1,2,3-triazol-4-yl)methyl) quinazoline-4,6-diamine], on Human Cot, the 50% inhibitory concentration (IC50) is 0.284 µM.
